{"source": "paper PMC8429728", "about": "“TNK1 is a ubiquitin-binding and 14-3-3-regulated kinase that can be targeted to block tumor growth” (Nature Communications, 2021)", "assay_in_all_cases": "biochemical", "set-up_in_all_cases": "Reaction Biology 371-kinase panel at Km ATP, per cent enzyme activity relative to DMSO, single dose in duplicate", "key": {"PAK2": {"molecular_target": "PAK2 (Homo sapiens, UniProt Q13177)", "conditions": "duplicate measurements, Km ATP; read-out: % Enzyme Activity (relative to DMSO controls) / TP-0005801 (0.3µM) / Data 1", "procedure,_shortened": "(§1)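 Percent kinase activity relative to vehicle (DMSO) is reported for a 371-kinase in vitro panel at 300 nM compound; IC50 values derive from variable-slope sigmoidal fits with the lower plateau fixed at 0.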"}, "TSSK2": {"molecular_target": "TSSK2 (Homo sapiens, UniProt Q96PF2)", "sequence (Q96PF2 whole entry)": "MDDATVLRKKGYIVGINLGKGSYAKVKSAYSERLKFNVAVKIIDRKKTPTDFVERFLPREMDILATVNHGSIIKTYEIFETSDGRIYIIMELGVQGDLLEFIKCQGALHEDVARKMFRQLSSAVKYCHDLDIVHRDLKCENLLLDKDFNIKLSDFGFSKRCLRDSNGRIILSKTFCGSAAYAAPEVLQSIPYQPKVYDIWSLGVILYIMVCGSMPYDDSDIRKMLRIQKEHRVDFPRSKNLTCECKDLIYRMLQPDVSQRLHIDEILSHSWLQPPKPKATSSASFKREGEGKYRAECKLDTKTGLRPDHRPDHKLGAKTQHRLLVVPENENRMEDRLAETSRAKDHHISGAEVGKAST", "conditions": "duplicate measurements, Km ATP", "procedure,_shortened": "as §1"}, "MAPKAPK5/PRAK": {"molecular_target": "MAPKAPK5/PRAK (Homo sapiens, UniProt Q8IW41)", "conditions": "duplicate measurements, Km ATP", "procedure,_shortened": "as §1"}, "ALK6/BMPR1B": {"molecular_target": "ALK6/BMPR1B (Homo sapiens, UniProt O00238)", "conditions": "duplicate measurements, Km ATP", "procedure,_shortened": "as §1"}, "STK25/YSK1": {"molecular_target": "STK25/YSK1 (Homo sapiens, UniProt O00506)", "conditions": "duplicate measurements, Km ATP", "procedure,_shortened": "as §1"}, "CDK1/cyclin A": {"molecular_target": "CDK1/cyclin A (Homo sapiens, UniProt P06493)", "sequence (P06493 whole entry)": "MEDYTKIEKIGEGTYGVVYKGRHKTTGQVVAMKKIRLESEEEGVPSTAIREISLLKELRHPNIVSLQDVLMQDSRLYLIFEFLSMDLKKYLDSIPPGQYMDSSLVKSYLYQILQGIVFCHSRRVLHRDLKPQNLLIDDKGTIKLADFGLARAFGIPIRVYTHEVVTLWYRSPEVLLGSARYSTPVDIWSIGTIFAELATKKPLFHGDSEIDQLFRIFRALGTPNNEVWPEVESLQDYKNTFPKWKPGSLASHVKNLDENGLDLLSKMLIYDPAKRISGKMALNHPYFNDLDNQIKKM", "sequence (P20248 whole entry partner)": "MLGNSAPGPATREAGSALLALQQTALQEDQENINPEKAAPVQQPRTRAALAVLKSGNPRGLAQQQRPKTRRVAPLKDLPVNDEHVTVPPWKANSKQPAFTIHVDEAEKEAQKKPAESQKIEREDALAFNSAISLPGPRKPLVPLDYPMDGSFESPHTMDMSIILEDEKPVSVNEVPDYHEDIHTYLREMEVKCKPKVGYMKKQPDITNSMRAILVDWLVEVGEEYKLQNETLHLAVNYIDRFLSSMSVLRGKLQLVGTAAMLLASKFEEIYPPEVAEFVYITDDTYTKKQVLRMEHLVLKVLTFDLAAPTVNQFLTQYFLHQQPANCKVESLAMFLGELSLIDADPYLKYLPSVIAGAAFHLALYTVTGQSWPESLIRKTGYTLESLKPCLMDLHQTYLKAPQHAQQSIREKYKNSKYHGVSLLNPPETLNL", "conditions": "duplicate measurements, Km ATP", "procedure,_shortened": "as §1"}, "SGK2": {"molecular_target": "SGK2 (Homo sapiens, UniProt Q9HBY8)", "sequence (Q9HBY8 whole entry)": "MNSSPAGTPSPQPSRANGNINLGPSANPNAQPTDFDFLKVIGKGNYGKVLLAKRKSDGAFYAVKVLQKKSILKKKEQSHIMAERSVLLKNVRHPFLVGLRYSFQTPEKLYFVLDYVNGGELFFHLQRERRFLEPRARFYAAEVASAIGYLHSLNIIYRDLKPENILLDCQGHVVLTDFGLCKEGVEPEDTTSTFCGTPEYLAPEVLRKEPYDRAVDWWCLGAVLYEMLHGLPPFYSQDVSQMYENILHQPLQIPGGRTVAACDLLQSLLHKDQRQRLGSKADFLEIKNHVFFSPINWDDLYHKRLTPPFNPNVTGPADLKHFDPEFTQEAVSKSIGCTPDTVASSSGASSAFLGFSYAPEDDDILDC", "conditions": "duplicate measurements, Km ATP", "procedure,_shortened": "as §1"}, "MEKK2": {"molecular_target": "T1, MEKK2 (Homo sapiens, UniProt Q9Y2U5)", "T1 construct": "gene MAP3K2", "T1 sequence (Q9Y2U5 whole entry)": "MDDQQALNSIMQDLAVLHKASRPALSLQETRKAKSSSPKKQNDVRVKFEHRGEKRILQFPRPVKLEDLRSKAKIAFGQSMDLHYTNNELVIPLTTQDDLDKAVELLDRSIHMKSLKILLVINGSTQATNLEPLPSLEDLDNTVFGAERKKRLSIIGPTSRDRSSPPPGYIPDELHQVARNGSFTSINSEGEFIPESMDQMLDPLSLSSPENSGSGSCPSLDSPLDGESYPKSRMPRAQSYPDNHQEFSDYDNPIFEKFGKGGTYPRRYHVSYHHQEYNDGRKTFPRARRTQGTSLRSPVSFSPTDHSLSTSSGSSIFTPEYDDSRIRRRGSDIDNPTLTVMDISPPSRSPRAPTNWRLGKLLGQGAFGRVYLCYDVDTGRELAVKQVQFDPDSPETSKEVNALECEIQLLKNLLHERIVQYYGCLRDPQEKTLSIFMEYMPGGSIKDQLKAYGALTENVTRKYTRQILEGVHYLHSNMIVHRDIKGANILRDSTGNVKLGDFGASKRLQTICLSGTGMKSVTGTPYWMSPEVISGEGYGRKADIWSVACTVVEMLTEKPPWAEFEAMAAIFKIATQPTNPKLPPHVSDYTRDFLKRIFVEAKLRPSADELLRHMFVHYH", "conditions": "duplicate measurements, Km ATP", "procedure,_shortened": "as §1"}, "LRRK2": {"molecular_target": "LRRK2 (Homo sapiens, UniProt Q5S007)", "sequence (Q5S007 whole entry)": "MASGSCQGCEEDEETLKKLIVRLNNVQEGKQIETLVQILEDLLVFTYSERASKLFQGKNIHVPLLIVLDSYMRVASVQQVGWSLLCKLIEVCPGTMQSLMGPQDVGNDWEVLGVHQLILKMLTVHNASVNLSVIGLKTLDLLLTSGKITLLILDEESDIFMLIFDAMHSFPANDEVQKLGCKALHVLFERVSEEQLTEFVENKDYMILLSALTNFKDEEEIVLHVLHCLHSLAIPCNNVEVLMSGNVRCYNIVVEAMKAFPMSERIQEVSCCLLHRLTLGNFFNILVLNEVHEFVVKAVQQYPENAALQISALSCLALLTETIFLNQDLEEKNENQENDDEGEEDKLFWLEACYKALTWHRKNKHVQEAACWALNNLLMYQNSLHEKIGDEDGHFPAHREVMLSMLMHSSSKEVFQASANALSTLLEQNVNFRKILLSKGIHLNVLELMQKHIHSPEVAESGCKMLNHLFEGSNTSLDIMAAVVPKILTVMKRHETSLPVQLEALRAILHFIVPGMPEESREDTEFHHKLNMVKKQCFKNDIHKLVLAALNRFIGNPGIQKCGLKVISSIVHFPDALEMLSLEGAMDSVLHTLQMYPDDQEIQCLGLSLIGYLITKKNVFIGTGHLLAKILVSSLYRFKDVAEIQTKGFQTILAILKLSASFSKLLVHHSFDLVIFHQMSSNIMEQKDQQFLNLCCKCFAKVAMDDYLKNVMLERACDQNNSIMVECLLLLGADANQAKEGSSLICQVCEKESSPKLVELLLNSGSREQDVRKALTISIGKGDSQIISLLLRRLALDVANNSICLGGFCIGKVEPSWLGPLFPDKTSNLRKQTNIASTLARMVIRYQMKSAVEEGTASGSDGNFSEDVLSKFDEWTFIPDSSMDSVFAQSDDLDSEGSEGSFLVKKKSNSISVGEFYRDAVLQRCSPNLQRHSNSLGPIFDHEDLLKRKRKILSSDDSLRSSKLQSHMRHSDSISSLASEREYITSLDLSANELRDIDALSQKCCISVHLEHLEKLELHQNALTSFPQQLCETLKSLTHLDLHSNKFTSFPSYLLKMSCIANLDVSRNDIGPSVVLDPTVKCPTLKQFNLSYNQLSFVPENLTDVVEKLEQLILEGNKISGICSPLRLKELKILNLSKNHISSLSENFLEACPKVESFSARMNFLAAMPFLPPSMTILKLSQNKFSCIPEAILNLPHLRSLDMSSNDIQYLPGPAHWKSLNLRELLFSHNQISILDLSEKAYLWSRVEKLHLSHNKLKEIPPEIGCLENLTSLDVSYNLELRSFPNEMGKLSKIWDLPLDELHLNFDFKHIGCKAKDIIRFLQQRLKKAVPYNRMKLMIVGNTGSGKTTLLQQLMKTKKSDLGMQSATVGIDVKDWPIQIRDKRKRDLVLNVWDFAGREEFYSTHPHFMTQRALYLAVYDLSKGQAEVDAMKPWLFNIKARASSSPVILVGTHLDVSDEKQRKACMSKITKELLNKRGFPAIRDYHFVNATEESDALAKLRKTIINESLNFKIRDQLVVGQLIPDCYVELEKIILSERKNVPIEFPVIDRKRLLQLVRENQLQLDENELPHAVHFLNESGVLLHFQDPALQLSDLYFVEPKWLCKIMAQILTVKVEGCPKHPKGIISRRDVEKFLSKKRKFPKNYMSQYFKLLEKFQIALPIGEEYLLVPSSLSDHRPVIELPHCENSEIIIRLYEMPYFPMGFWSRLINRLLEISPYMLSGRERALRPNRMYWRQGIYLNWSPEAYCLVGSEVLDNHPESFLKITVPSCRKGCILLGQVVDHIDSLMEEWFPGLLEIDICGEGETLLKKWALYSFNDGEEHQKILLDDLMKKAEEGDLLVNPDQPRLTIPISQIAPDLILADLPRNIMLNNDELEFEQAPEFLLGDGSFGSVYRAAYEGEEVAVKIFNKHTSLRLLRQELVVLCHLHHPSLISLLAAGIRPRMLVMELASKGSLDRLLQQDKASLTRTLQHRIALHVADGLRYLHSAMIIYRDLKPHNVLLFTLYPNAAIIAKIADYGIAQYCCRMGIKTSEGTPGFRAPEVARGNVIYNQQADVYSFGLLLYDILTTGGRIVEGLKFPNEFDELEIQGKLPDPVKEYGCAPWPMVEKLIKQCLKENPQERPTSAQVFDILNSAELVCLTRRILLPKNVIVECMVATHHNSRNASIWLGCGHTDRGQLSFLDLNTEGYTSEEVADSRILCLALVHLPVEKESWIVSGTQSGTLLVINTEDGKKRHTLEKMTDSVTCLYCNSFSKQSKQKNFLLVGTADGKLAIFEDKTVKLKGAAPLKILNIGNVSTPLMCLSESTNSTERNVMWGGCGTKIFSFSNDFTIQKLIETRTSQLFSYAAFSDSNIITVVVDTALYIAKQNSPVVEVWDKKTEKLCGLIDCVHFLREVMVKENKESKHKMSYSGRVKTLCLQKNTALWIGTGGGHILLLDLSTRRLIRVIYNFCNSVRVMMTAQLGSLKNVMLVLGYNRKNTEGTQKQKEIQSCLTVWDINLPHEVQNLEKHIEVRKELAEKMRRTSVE", "conditions": "duplicate measurements, Km ATP", "procedure,_shortened": "as §1"}, "CDK7/cyclin H": {"molecular_target": "CDK7/cyclin H (Homo sapiens, UniProt P50613)", "conditions": "duplicate measurements, Km ATP", "procedure,_shortened": "as §1"}, "ZIPK/DAPK3": {"molecular_target": "ZIPK/DAPK3 (Homo sapiens, UniProt O43293)", "conditions": "duplicate measurements, Km ATP", "procedure,_shortened": "as §1"}, "PKMYT1": {"molecular_target": "T2, PKMYT1 (Homo sapiens, UniProt Q99640)", "T2 sequence (Q99640 1-499)": "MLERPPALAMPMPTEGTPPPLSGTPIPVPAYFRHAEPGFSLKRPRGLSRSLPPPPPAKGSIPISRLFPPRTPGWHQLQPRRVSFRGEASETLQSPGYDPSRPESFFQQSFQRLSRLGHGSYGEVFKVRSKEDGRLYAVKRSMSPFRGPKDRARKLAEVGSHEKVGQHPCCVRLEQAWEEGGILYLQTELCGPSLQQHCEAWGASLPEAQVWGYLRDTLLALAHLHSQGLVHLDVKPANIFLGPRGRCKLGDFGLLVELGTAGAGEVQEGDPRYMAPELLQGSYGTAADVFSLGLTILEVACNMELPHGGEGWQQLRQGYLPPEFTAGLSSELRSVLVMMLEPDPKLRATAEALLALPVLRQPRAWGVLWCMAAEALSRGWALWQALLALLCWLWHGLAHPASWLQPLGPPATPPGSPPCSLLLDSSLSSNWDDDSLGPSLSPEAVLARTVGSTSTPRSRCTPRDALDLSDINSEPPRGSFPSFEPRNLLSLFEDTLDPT", "conditions": "duplicate measurements, Km ATP", "procedure,_shortened": "as §1"}, "JNK3": {"molecular_target": "T3, JNK3 (Homo sapiens, UniProt P53779)", "T3 construct": "gene MAPK10", "T3 sequence (P53779 whole entry)": "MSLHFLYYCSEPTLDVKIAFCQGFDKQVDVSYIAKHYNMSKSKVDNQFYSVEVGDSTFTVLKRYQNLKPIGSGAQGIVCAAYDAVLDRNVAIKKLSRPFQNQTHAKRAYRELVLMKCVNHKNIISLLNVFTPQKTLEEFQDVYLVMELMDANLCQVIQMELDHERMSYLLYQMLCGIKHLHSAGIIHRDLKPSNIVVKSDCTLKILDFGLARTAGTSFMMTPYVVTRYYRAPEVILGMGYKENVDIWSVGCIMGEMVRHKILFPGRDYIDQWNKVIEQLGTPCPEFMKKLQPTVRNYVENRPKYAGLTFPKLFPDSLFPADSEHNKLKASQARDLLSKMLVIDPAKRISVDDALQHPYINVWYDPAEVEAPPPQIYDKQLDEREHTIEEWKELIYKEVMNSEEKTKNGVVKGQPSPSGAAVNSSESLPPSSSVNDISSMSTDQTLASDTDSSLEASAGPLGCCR", "conditions": "duplicate measurements, Km ATP", "procedure,_shortened": "as §1"}, "CTK/MATK": {"molecular_target": "CTK/MATK (Homo sapiens, UniProt P42679)", "conditions": "duplicate measurements, Km ATP", "procedure,_shortened": "as §1"}, "CK2a2": {"molecular_target": "T4, CK2a2 (Homo sapiens, UniProt P19784)", "T4 construct": "gene CSNK2A2", "conditions": "duplicate measurements, Km ATP", "procedure,_shortened": "as §1"}, "PBK/TOPK": {"molecular_target": "PBK/TOPK (Homo sapiens, UniProt Q96KB5)", "conditions": "duplicate measurements, Km ATP", "procedure,_shortened": "as §1"}, "[1]": {"conditions": "read-out: % Enzyme Activity (relative to DMSO controls) / TP-0005801 (0.3µM) / Data 1"}, "[2]": {"conditions": "read-out: % Enzyme Activity (relative to DMSO controls) / TP-0005801 (0.3µM) / Data 2"}}, "note": "Where two headings read alike, the source gives them in different places.", "data": [{"molecule": "COc1cc(N2CCN(C)CC2)c(C)cc1Nc1ncc(Br)c(Nc2cccnc2N(C)C)n1", "note": "[TP-5801]", "values": [{"measurement": "remaining activity at 0.3 µM", "setting": "PAK2", "result": 104, "unit": "%"}, {"measurement": "remaining activity at 0.3 µM", "setting": "TSSK2; [1]", "result": 88.4, "unit": "%"}, {"measurement": "remaining activity at 0.3 µM", "setting": "TSSK2; [2]", "result": 86.9, "unit": "%"}, {"measurement": "remaining activity at 0.3 µM", "setting": "MAPKAPK5/PRAK; [1]", "result": 116, "unit": "%"}, {"measurement": "remaining activity at 0.3 µM", "setting": "MAPKAPK5/PRAK; [2]", "result": 107, "unit": "%"}, {"measurement": "remaining activity at 0.3 µM", "setting": "ALK6/BMPR1B; [1]", "result": 97.9, "unit": "%"}, {"measurement": "remaining activity at 0.3 µM", "setting": "ALK6/BMPR1B; [2]", "result": 97.6, "unit": "%"}, {"measurement": "remaining activity at 0.3 µM", "setting": "STK25/YSK1; [1]", "result": 85.8, "unit": "%"}, {"measurement": "remaining activity at 0.3 µM", "setting": "STK25/YSK1; [2]", "result": 80.9, "unit": "%"}, {"measurement": "remaining activity at 0.3 µM", "setting": "CDK1/cyclin A; [1]", "result": 102, "unit": "%"}, {"measurement": "remaining activity at 0.3 µM", "setting": "CDK1/cyclin A; [2]", "result": 101, "unit": "%"}, {"measurement": "remaining activity at 0.3 µM", "setting": "SGK2; [1]", "result": 93.7, "unit": "%"}, {"measurement": "remaining activity at 0.3 µM", "setting": "SGK2; [2]", "result": 92.7, "unit": "%"}, {"measurement": "remaining activity at 0.3 µM", "setting": "MEKK2; [1]", "result": 86.8, "unit": "%"}, {"measurement": "remaining activity at 0.3 µM", "setting": "MEKK2; [2]", "result": 81, "unit": "%"}, {"measurement": "remaining activity at 0.3 µM", "setting": "LRRK2; [1]", "result": 8.89, "unit": "%"}, {"measurement": "remaining activity at 0.3 µM", "setting": "LRRK2; [2]", "result": 8.22, "unit": "%"}, {"measurement": "remaining activity at 0.3 µM", "setting": "CDK7/cyclin H; [1]", "result": 103, "unit": "%"}, {"measurement": "remaining activity at 0.3 µM", "setting": "CDK7/cyclin H; [2]", "result": 101, "unit": "%"}, {"measurement": "remaining activity at 0.3 µM", "setting": "ZIPK/DAPK3; [1]", "result": 81, "unit": "%"}, {"measurement": "remaining activity at 0.3 µM", "setting": "ZIPK/DAPK3; [2]", "result": 79.4, "unit": "%"}, {"measurement": "remaining activity at 0.3 µM", "setting": "PKMYT1; [1]", "result": 62.9, "unit": "%"}, {"measurement": "remaining activity at 0.3 µM", "setting": "PKMYT1; [2]", "result": 62.8, "unit": "%"}, {"measurement": "remaining activity at 0.3 µM", "setting": "JNK3; [1]", "result": 81, "unit": "%"}, {"measurement": "remaining activity at 0.3 µM", "setting": "JNK3; [2]", "result": 80.7, "unit": "%"}, {"measurement": "remaining activity at 0.3 µM", "setting": "CTK/MATK; [1]", "result": 108, "unit": "%"}, {"measurement": "remaining activity at 0.3 µM", "setting": "CTK/MATK; [2]", "result": 106, "unit": "%"}, {"measurement": "remaining activity at 0.3 µM", "setting": "CK2a2; [1]", "result": 107, "unit": "%"}, {"measurement": "remaining activity at 0.3 µM", "setting": "CK2a2; [2]", "result": 89.1, "unit": "%"}, {"measurement": "remaining activity at 0.3 µM", "setting": "PBK/TOPK; [1]", "result": 107, "unit": "%"}, {"measurement": "remaining activity at 0.3 µM", "setting": "PBK/TOPK; [2]", "result": 98.9, "unit": "%"}]}]}
